Results reported in patent US12290513B2, “Therapeutic methods and compositions for treating movement disorders” (Vima Therapeutics, Inc., priority 2023, dated 2025).
Read-outs that look alike come from different tables or passages of the source.

Experiments:
[1] = Whole blood stability, rat; details: rat, blood; for Remaining Percentages (%) 0 min: 0 h, 1 μM
Description: Procedures for blood Stability. • A. 398 μL of blood from each species was added to an incubation plate, which was pre-warmed at 37C for 15 minutes. • B. After the pre-incubation, 2 μL of working solution (test compounds or control compounds) was spiked to 398 μL of blood to reach a final concentration of 1 μM for test compounds and 5 μM for control compounds. The final concentration of organic solvents is 0.5%. The assays were performed in duplicate. • C. The reaction samples were incubated at 37C. • D. Aliquots of 50 μL were taken from the reaction samples at 0, 15, 30, 60 and 120 minutes. The reaction was stopped by the addition of 50 μL ultrapure water and 400 μL cold acetonitrile. • E. All samples were vortexed for 10 minutes, followed by centrifugation at 3,220 g for 40 minutes to precipitate proteins. 100 μL of the supernatant was then transferred to a new plate. The supernatant was diluted with ultrapure water as needed for detection by LC-MS/MS. Sample Analysis
Samples were analyzed by LC-MS/MS to measure the concentration of the test compounds.
(§1) All calculations were carried out using Microsoft Excel and according to standard analysis methods that are known in the art.

[2] = Hepatocyte stability, human
Description: • 1. 10 mM stock solutions of test compounds and positive control compound were prepared in appropriate solvent (DMSO). • 2. In separate conical tubes, 10 mM test compound and positive controls were diluted to 100 μM by combining 198 μL of 50% acetonitrile/50% water and 2 μL of 10 mM stock. Preparation of Hepatocytes • 1. Incubation medium (William's E Medium supplemented with GlutaMAX) and hepatocyte thawing medium were placed in a 37C water bath and warmed for at least 15 minutes prior to use. • 2. A vial of cryopreserved hepatocytes was thawed by placing the vial in a 37C water bath and gently shaken for 2 minutes. After thawing was completed, the vial was cleaned with 70% ethanol and transferred to a biosafety cabinet. • 3. Using wide-bore pipette tips, hepatocytes were transferred into a 50 mL conical tube containing thawing medium. The 50 mL conical tube was placed into a centrifuge and spun at 100 g for 10 minutes. […] Using AO/PI Staining, cells were counted to determine the viable cell density. Cells were diluted with incubation medium to a working cell density of 0.5×10^6 viable cells/mL. Procedure for Stability Determination • 1. 198 μL of hepatocytes were pipetted into each well of a 96-well non-coated plate. The plate was placed in the incubator to allow the hepatocytes to warm for 10 minutes. • 2. 2 μL of the 100 μM test compound or positive control was pipetted into respective wells of the 96-well non-coated plate to start the reaction. The plate was returned to the incubator for the designed time points. • 3. The contents of the wells were removed in 25 μL aliquots at time points of 0.5, 15, 30, 60, 90 and 120 minutes. The aliquots were then mixed with 6 volumes (150 μL) of acetonitrile containing an internal standard, IS (100 nM alprazolam, 200 nM caffeine and 100 nM tolbutamide), to terminate the reaction. Samples were vortexed for 5 minutes and centrifuged for 45 minutes at 3,220 g. Aliquots of 100 μL of supernatant were diluted with 100 μL ultra-pure water, and the mixture was used for LC/MS/MS analysis. All incubations were performed in duplicate. Data Analysis
as §1

[3] = system: haloperidol-induced catalepsy; assay: Haloperidol-induced catalepsy (bar test); assay type: in vivo, Sprague Dawley rats; details: for time spent holding bar, haloperidol-induced catalepsy: rats, haloperidol 1 mg/kg sc, Rac-THP 10, 20, 30 mg/kg, R-THP or S-THP 5, 10, 15 mg/kg ip
Description: Animals: Adult male Sprague Dawley rats (230-235 g) from Envigo were used in this study. Upon receipt, rats were group housed in ventilated cages and acclimated for one week prior to testing.
The front paws of a rat were placed then on a horizontal metal bar raised 6″ above a Plexiglas platform. Each rat underwent 3 trials of 60 seconds each. The test ended when the animal's front paws return to the platform or after 60 seconds. Rats were tested at 30 and 60 minutes after treatment.
Data were analyzed by one-way analysis of variance (ANOVA) followed by Tukey's post-hoc comparisons, where appropriate. Data are represented as mean and standard error to the mean (SEM).

[4] = target: T1, CYP1A2 (Homo sapiens, UniProt P05177); assay: Incubation with recombinant CYP1A2
T1 sequence (P05177 1-516): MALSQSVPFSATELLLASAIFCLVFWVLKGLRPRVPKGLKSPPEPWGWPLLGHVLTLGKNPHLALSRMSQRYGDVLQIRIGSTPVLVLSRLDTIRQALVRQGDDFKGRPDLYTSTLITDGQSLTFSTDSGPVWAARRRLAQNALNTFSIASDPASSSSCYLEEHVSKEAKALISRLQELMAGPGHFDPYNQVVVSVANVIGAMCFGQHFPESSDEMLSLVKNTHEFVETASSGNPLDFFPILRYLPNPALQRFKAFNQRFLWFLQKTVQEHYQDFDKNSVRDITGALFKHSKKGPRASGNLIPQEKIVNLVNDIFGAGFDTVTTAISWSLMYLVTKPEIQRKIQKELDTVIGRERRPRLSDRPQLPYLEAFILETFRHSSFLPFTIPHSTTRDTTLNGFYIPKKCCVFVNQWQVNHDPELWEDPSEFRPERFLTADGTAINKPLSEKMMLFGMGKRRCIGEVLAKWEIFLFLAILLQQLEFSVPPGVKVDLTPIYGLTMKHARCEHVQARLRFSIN

[5] = target: T2, CYP2A6 (Homo sapiens, UniProt P11509); assay: Incubation with recombinant CYP2A6; details: for t1/2: unit not given
T2 sequence (P11509 1-494): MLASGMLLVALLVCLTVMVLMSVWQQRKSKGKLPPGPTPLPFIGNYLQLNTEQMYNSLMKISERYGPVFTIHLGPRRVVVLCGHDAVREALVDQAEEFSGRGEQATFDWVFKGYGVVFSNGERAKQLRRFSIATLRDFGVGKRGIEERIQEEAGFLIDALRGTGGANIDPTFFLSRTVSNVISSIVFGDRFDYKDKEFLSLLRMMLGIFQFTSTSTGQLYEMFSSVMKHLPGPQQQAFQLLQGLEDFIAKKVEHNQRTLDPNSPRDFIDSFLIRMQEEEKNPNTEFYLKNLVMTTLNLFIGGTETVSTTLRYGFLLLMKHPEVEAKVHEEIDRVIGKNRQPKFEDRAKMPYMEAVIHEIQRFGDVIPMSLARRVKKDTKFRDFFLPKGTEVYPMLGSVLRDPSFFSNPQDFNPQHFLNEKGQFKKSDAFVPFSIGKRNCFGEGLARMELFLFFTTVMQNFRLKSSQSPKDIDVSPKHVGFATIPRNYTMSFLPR

t1/2 [1]	Remaining Percentages (%) 0 min [1]	Predicted Hepatic CLH ([2]; hepatocytes)	in vitro t1/2 ([2]; hepatocytes)	CLint [4]	Substrates of CYP1A2 [4]	half-life ([4]; human)	Substrates of CYP1A2 ([4]; listed as S)	CLint [5]	t1/2 [5]	CLint scaled at 1 μM ([2]; cryopreserved hepatocytes)	half-life at 1 μM ([2]; cryopreserved hepatocytes)	hepatocyte CLint at 1 μM ([2]; cryopreserved hepatocytes)	Substrates of CYP1A2 ([4]; listed as R)	SMILES	time spent holding bar, haloperidol-induced catalepsy ([3]; 30 minutes after injection)	time spent holding bar, haloperidol-induced catalepsy ([3]; 60 minutes after injection)	Efficacy of R-THP versus Rac-THP over a dosage range ([3]; catalepsy control, FIG. 6)
∞	100.00%	0 mL/min/kg	∞	–	–	–	–	–	–	–	–	–	–	C[C@@H](C[N+](C)(C)C)OC(N)=O.[Cl-] [(S)-BTC, (S)-bethanechol]	–	–	–
–	–	–	–	0.20 µL/min/pmol	is metabolized	34.6 min	S and Rac	0.00 µL/min/pmol	∞	–	–	–	–	O[C@](CCN1CCCCC1)(c1ccccc1)C1CCCCC1 [(S)-THP, (S)-trihexyphenidyl]	did not significantly differ from those of haloperidol-treated rats	no significant differences	–
∞	100.00%	–	–	0.00 µL/min/pmol	not metabolized	–	–	0.00 µL/min/pmol	∞	55.7 mL/min/kg	63.3 min	21.9 µL/min/1e6 cells	no R	O[C@@](CCN1CCCCC1)(c1ccccc1)C1CCCCC1 [(R)-THP, (R)-trihexyphenidyl]	significantly attenuated haloperidol-induced catalepsy	significantly attenuated haloperidol-induced catalepsy	half a dose of R-THP controls catalepsy at least as effectively as a full dose of Rac-THP
